Tested on: human cervical tumor cell line HeLa (ATCC CCL-2)
Experiment: SAC-Formation - Paclitaxel-Induced Assay
Format: cell-based
Settings: Homo sapiens, HeLa, 24 h, HeLa cells, paclitaxel 0.05 μM, test range 0.005 μM-20 μM, read-out: IC50 [mol/l] SAC-Formation - Paclitaxel-Induced Assay
Outline: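 HeLa cells incubated overnight at 37° C, then given paclitaxel (0.05 μM final) plus test compound (0.005–20 μM, 0.5% DMSO) together for 24 h at 37° C. Fixed cells stained for phospho-histone H3 Ser10 (mitotic cells) and Hoechst 33342 (cell count); imaging-derived mitotic index fitted by four-parameter Hill equation.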

Row | IC50 [nM] | Compound
1 | 10000 | Cc1nsc(Nc2cnc3ccccc3n2)c1C(=O)Nc1ccc(NC2CCN(C(=O)OC(C)(C)C)CC2)nc1 [Example 234, tert-butyl 4-{[5-({[3-methyl-5-(quinoxalin-2-ylamino)-1,2-thiazol-4-yl]carbonyl}amino)pyridin-2-yl]amino}piperidine-1-carboxylate]
2 | 77 | Cc1nsc(Nc2ccc(C#N)cn2)c1C(=O)Nc1ccc(S(C)(=O)=O)cc1 [Example 246, 5-[(5-cyanopyridin-2-yl)amino]-3-methyl-N-[4-(methylsulfonyl)phenyl]-1,2-thiazole-4-carboxamide]
3 | 48 | Cc1nsc(Nc2cnc(C(F)(F)F)cn2)c1C(=O)Nc1ccc(OCC2CCCN(C(=O)OC(C)(C)C)C2)nc1 (stereo not shown) [Example 228, tert-butyl 3-{[(5-{[(3-methyl-5-{[5-(trifluoromethyl)pyrazin-2-yl]amino}-1,2-thiazol-4-yl)carbonyl]amino}pyridin-2-yl)oxy]methyl}piperidine-1-carboxylate]
4 | 210 | Cc1nsc(Nc2cncc(C(F)(F)F)n2)c1C(=O)Nc1ccc(OCC2CCN(C(=O)OC(C)(C)C)CC2)nc1 [Example 226, tert-butyl 4-{[(5-{[(3-methyl-5-{[6-(trifluoromethyl)pyrazin-2-yl]amino}-1,2-thiazol-4-yl)carbonyl]amino}pyridin-2-yl)oxy]methyl}piperidine-1-carboxylate]
5 | 360 | Cc1nsc(Nc2cnc(C(F)(F)F)cn2)c1C(=O)Nc1ccc(F)c(OC2CCN(C(=O)OC(C)(C)C)CC2)c1 [Example 229, tert-butyl 4-(2-fluoro-5-{[(3-methyl-5-{[5-(trifluoromethyl)pyrazin-2-yl]amino}-1,2-thiazol-4-yl)carbonyl]amino}phenoxy)piperidine-1-carboxylate]
6 | 410 | Cc1nsc(Nc2cnc(C(F)(F)F)cn2)c1C(=O)Nc1ccc(OC2CCN(C(=O)OC(C)(C)C)CC2)c(F)c1 [Example 217, tert-butyl 4-(2-fluoro-4-{[(3-methyl-5-{[5-(trifluoromethyl)pyrazin-2-yl]amino}-1,2-thiazol-4-yl)carbonyl]amino}phenoxy)piperidine-1-carboxylate]
7 | 20000 | COC(=O)c1cc(NC(=O)c2c(C)nsc2Nc2cnc3ccccc3n2)cc(C(=O)OC)c1 [Example 237, dimethyl 5-({[3-methyl-5-(quinoxalin-2-ylamino)-1,2-thiazol-4-yl]carbonyl}amino)isophthalate]
8 | 820 | Cc1nsc(Nc2cncc(C(F)(F)F)n2)c1C(=O)Nc1ccc(C(=O)NC2CCN(C(=O)OC(C)(C)C)CC2)cc1 [Example 222, tert-butyl 4-[(4-{[(3-methyl-5-{[6-(trifluoromethyl)pyrazin-2-yl]amino}-1,2-thiazol-4-yl)carbonyl]amino}benzoyl)amino] piperidine-1-carboxylate]
9 | 970 | Cc1nsc(Nc2cnc(C(F)(F)F)cn2)c1C(=O)Nc1ccc(OC2CCN(C)CC2)nc1 [Example 220, 3-methyl-N-{6-[(1-methylpiperidin-4-yl)oxy]pyridin-3-yl}-5-{[5-(trifluoromethyl)pyrazin-2-yl]amino}-1,2-thiazole-4-carboxamide]
10 | 3900 | Cc1nsc(Nc2cnc3ccccc3n2)c1C(=O)Nc1ccc(NCCNC(=O)OC(C)(C)C)nc1 [Example 244, tert-butyl (2-{[5-({[3-methyl-5-(quinoxalin-2-ylamino)-1,2-thiazol-4-yl]carbonyl}amino)pyridin-2-yl]amino}ethyl)carbamate]
11 | 260 | Cc1nsc(Nc2cnc3ccccc3n2)c1C(=O)Nc1ccc(Oc2cccnc2)nc1 [Example 231, 3-methyl-N-[6-(pyridin-3-yloxy)pyridin-3-yl]-5-(quinoxalin-2-ylamino)-1,2-thiazole-4-carboxamide]
12 | 3300 | Cc1nsc(Nc2cc(C#N)ccn2)c1C(=O)Nc1ccc(NC2CCCNC2)nc1 (stereo not shown) [Example 242, 5-[(4-cyanopyridin-2-yl)amino]-3-methyl-N-[6-(piperidin-3-ylamino)pyridin-3-yl]-1,2-thiazole-4-carboxamide]
13 | 630 | Cc1nsc(Nc2cc(C#N)ccn2)c1C(=O)Nc1cccc(C(=O)OC(C)(C)C)c1 [Example 239, tert-butyl 3-[({5-[(4-cyanopyridin-2-yl)amino]-3-methyl-1,2-thiazol-4-yl}carbonyl)amino]benzoate]
14 | 300 | Cc1nsc(Nc2cnc(C(F)(F)F)cn2)c1C(=O)Nc1ccc(OCC2CCN(C(=O)OC(C)(C)C)CC2)nc1 [Example 227, tert-butyl 4-{[(5-{[(3-methyl-5-{[5-(trifluoromethyl)pyrazin-2-yl]amino}-1,2-thiazol-4-yl)carbonyl]amino}pyridin-2-yl)oxy]methyl}piperidine-1-carboxylate]
15 | 660 | Cc1nsc(Nc2cncc(C(F)(F)F)n2)c1C(=O)Nc1ccc(OC2CCN(C)CC2)nc1 [Example 219, 3-methyl-N-{6-[(1-methylpiperidin-4-yl)oxy]pyridin-3-yl}-5-{[6-(trifluoromethyl)pyrazin-2-yl]amino}-1,2-thiazole-4-carboxamide]

Continued, compound first:

Row | Compound | IC50 [nM]
16 | CNS(=O)(=O)c1ccc(NC(=O)c2c(C)nsc2Nc2cnc(C(F)(F)F)cn2)cc1 [Example 212, 3-methyl-N-[4-(methylsulfamoyl)phenyl]-5-{[5-(trifluoromethyl)pyrazin-2-yl]amino}-1,2-thiazole-4-carboxamide] | 4100
17 | Cc1nsc(Nc2ccc(C#N)cn2)c1C(=O)Nc1ccc(OCCC(=O)OC(C)(C)C)nc1 [Example 199, tert-butyl 3-({5-[({5-[(5-cyanopyridin-2-yl)amino]-3-methyl-1,2-thiazol-4-yl}carbonyl)amino]pyridin-2-yl}oxy)propanoate] | 110
18 | Cc1nsc(Nc2cncc(C(F)(F)F)n2)c1C(=O)Nc1ccc(OC2CCN(CCF)CC2)nc1 [Example 14, N-(6-{[1-(2-Fluoroethyl)piperidin-4-yl]oxy}pyridin-3-yl)-3-methyl-5-{[6-(trifluoro-methyl)pyrazin-2-yl]amino}-1,2-thiazole-4-carboxamide] | 630
19 | Cc1nsc(Nc2cc(C#N)ccn2)c1C(=O)Nc1ccc(C(=O)OC(C)(C)C)cc1 [Example 182, tert-butyl 4-[({5-[(4-cyanopyridin-2-yl)amino]-3-methyl-1,2-thiazol-4-yl}carbonyl)amino]benzoate] | 19
20 | CNC(=O)c1ccc(NC(=O)c2c(C)nsc2Nc2cnc3ccccc3n2)cc1F [Example 207, N-[3-fluoro-4-(methylcarbamoyl)phenyl]-3-methyl-5-(quinoxalin-2-ylamino)-1,2-thiazole-4-carboxamide] | 76
21 | CNC(=O)c1ccc(NC(=O)c2c(C)nsc2Nc2ccc(C#N)cn2)cc1F [Example 208, 5-[(5-cyanopyridin-2-yl)amino]-N-[3-fluoro-4-(methylcarbamoyl)phenyl]-3-methyl-1,2-thiazole-4-carboxamide] | 41
22 | Cc1nsc(Nc2cc(C#N)ccn2)c1C(=O)Nc1cccc(NC(=O)C(C)(C)C)c1 [Example 183, 5-[(4-cyanopyridin-2-yl)amino]-N-{3-[(2,2-dimethylpropanoyl)amino]phenyl}-3-methyl-1,2-thiazole-4-carboxamide] | 4900
23 | Cc1nsc(Nc2cncc(C(F)(F)F)n2)c1C(=O)Nc1ccc(OCCCN)nc1 [Example 209, N-[6-(3-aminopropoxy)pyridin-3-yl]-3-methyl-5-{[6-(trifluoromethyl)pyrazin-2-yl]amino}-1,2-thiazole-4-carboxamide] | 2300
24 | COC(=O)CCc1cccc(NC(=O)c2c(C)nsc2Nc2ccc(C#N)cn2)c1 [Example 176, methyl 3-{3-[({5-[(5-cyanopyridin-2-yl)amino]-3-methyl-1,2-thiazol-4-yl}carbonyl)amino]phenyl}propanoate] | 240
25 | Cc1nsc(Nc2cncc(C(F)(F)F)n2)c1C(=O)Nc1ccc(OC2CCCN(C(=O)OC(C)(C)C)C2)nc1 (stereo not shown) [Example 189, tert-butyl 3-[(5-{[(3-methyl-5-{[6-(trifluoromethyl)pyrazin-2-yl]amino}-1,2-thiazol-4-yl)carbonyl]amino}pyridin-2-yl)oxy]piperidine-1-carboxylate] | 450
26 | Cc1nsc(Nc2cnc3ccccc3n2)c1C(=O)Nc1cccc(NC(=O)OC(C)(C)C)c1 [Example 178, tert-butyl [3-({[3-methyl-5-(quinoxalin-2-ylamino)-1,2-thiazol-4-yl]carbonyl}amino)-phenyl]carbamate] | 260
27 | Cc1nsc(Nc2cnc3ccccc3n2)c1C(=O)Nc1ccc(C(=O)O)cc1 [Example 187, 4-({[3-methyl-5-(quinoxalin-2-ylamino)-1,2-thiazol-4-yl]carbonyl}amino)benzoic acid] | 1400
28 | Cc1nsc(Nc2cnc(C(F)(F)F)cn2)c1C(=O)Nc1cccc(S(C)(=O)=O)c1 [Example 195, 3-methyl-N-[3-(methylsulfonyl)phenyl]-5-{[5-(trifluoromethyl)pyrazin-2-yl]amino}-1,2-thiazole-4-carboxamide] | 520
29 | Cc1nsc(Nc2cncc(C(F)(F)F)n2)c1C(=O)Nc1ccc(OC2CCN(CC(F)(F)F)CC2)nc1 [Example 16, 3-Methyl-N-(6-{[1-(2,2,2-trifluoroethyl)piperidin-4-yl]oxy}pyridin-3-yl)-5-{[6-(trifluoromethyl)pyrazin-2-yl]amino}-1,2-thiazole-4-carboxamide] | 420
30 | Cc1nsc(Nc2ccc(C#N)cn2)c1C(=O)Nc1cccc(N)c1 [Example 180, N-(3-aminophenyl)-5-[(5-cyanopyridin-2-yl)amino]-3-methyl-1,2-thiazole-4-carboxamide] | 4300
31 | Cc1nsc(Nc2cc(C#N)ccn2)c1C(=O)Nc1cccc(C(=O)NC2CC2)c1 [Example 175, 5-[(4-cyanopyridin-2-yl)amino]-N-[3-(cyclopropylcarbamoyl)phenyl]-3-methyl-1,2-thiazole-4-carboxamide] | 2600

From patent publication US20170334899A1, “AMINO-SUBSTITUTED ISOTHIAZOLES” (Bayer Pharma Aktiengesellschaft, priority 2014, published 2017)
